Assays:
[1] = tested on: human umbilical vein endothelial cells (HUVECs); assay: HUVEC proliferation assay (WST-1), 2- and 4-day, 5,000 cells per well; format: cell-based; conditions: for concentration-response profile in words: 2- and/or 4-day assay; for anti-proliferative activity in words at 0.01 μg/ml: 0.01 μg/ml peptide
Method: The effect of the various peptides on cell proliferation was assayed, by administering the peptides to human umbilical vein endothelial cells (HUVECs) in culture. 45 peptides belonging to four distinct families of proteins including the thrombospondin-1 containing proteins, the C-X-C chemokines, collagen derived peptides and peptides from tissue inhibitors of metalloproteinases were tested. The potency of each of the peptides was tested using the proliferation assay at 2 days and 4 days following administration of the peptides and a similar assay using a different cell density at 3 days. In the four-day experiments, the cell medium was changed after the second day of incubation and the peptide was replaced at the initial concentration together with the medium. TNP-470 is an antiangiogenic compound that was used as a positive control for assessing anti-angiogenic efficacy. The activity of each polypeptide was, therefore, expressed as a percentage of TNP-470 activity, i.e., the optical density obtained experimentally is scaled such that the negative control is 0% and the positive control is 100% as explained below (FIG. 4). Each plate included a well having HUVEC cells that received 0.1 μg/ml TNP-470. For example, a peptide having the same effect on endothelial cell proliferation would have 100% of the activity of TNP-470. Note that activity could exceed 100%. In this assay, the effects of the predicted anti-angiogenic fragments on the ability of HUVECs to proliferate was characterized. […] A commonly used methodology to test for proliferation is to monitor the viability and metabolic activity of endothelial cells, in the presence of the anti-angiogenic fragments at different concentrations and various time steps. The cell proliferation reagent WST-1 was used as a substrate/assay to measure the metabolic activity of viable cells. WST-1 is a colorimetric, non-radioactive assay and can be performed in a microplate. It is suitable for measuring cell proliferation, cell viability or cytotoxicity. The assay is based on the reduction a red tetrazolium salt, WST-1, by viable, metabolically active, cells to form the yellow formazan crystals soluble in the cell medium. […] The cells are cultured described above. Once cells have reached 80% confluence they are trypsinized and resuspended in EGM-2. The cell density is estimated using a hemocytometer. All of the endothelial cells used were from passage 4 to passage 8. The proliferation assay involved two steps. During the first step the cells, approximately 5,000 cells per well for a 96-well plate, were seeded without any extracellular matrix substrate on the wells overnight (8 hours). The initial cell culture medium was removed using a multichannel pipetor and the candidate peptides were applied. A logarithmic scale of four different concentrations of 0.01 μg/ml, 0.1 μg/ml, 1 μg/ml and 10 μg/ml of each peptide was used. Each of the concentrations was tested in quadruplicate. The viability of the cells was challenged at 2 and 4 days upon the application of the peptide. As a positive control for decreased viability, 0.1 μg/ml of TNP-470 (O-(chloro-acetyl-carbamoyl) fumagillol, a synthetic analogue of fumagillin; TNP-470 was provided by NCI, was provided along with the medium, and as a negative control for normal viability, the cells were cultured without the addition of any agent. The cells were then incubated with 10 μl per well of the red WST-1 reagent for approximately 2 to 4 hours. During this incubation period, viable cells converted, in their mitochondria, the red WST-1 to the yellow formazan crystals which dissolve in the medium. The second step of the assay involved the quantification of the changes in proliferation which was performed by measuring the change in color after lysing the cells. The samples were read using the ELISA plate reader Victor3 V (Perkin Elmer) at a wavelength of […]. The amount of color produced is directly proportional to the number of viable cells. […]

[2] = tested on: human umbilical vein endothelial cells (HUVECs); assay: HUVEC proliferation assay (WST-1), 3-day, 2,000 cells per well; format: cell-based; conditions: 3-day assay; for anti-proliferative activity in words at high peptide concentration: high/highest applied concentration (30 μg/ml where stated); for anti-proliferative activity in words: overall; for anti-proliferative activity (maximum or stated level), scaled so that TNP-470 = 100%: 0.01-30 μg/ml
Method: In addition to the 2 and 4 day proliferation experiment where 5,000 cells per well were seeded, the effects of the peptides on the proliferating ability of HUVECs were also studied using cells seeded at a density of 2,000 cells per well. This lower cell seeding density allowed the experiment to be extend for an additional day without changing the cell medium. The effects of the peptides when applied to the cells for 3 consecutive days is also reported herein. The proliferation assay again involved two steps. During the first step 2,000 cells per well for a 96-well plate were seeded without any extracellular matrix substrate on the wells overnight (8 hours). The initial cell culture medium was removed using a multichannel pipetor. To synchronize the cells, the cells were serum starved for 4 hours and the candidate peptides were applied. During serum starvation the cell culture medium was changed from a “full” medium to the “basal” medium, which contained no growth factors or serum. Serum starvation for 4 hours had no effect on the proliferation of the cells. For this assay, the logarithmic scale of four different concentrations of 0.01 μg/ml, 0.1 μg/ml, 1 μg/ml and 10 μg/ml of peptide was used. In addition, a larger concentration of 30 μg/ml peptide was also applied. Each of the concentrations was again tested in quadruplicate. After the third day of peptide application the WST-1 dye was applied for approximately 2 to 4 hours (usually after 3 hours the color saturates). The proliferation was later tested on the ELISA plate reader as described for the 2 and 4 day assay. Note that the 2- and 4-day and the 3-day protocols differed in that 5,000 cells/well versus 2,000 cells/well seeded, respectively.

[3] = 2- and 4-day assay, day not specified
[4] = 2- and 4-day assay, day not specified or constant throughout the four days
[5] = 10 μg/ml peptide, 2- and 4-day assay
[6] = 4 days of peptide application, 0.01-10 μg/ml

Sequence | anti-proliferative activity (maximum or stated level), scaled so that TNP-470 = 100% [1, 4] | anti-proliferative activity in words at high peptide concentration [2] | concentration-response profile in words [2] | concentration-response profile in words [1] | anti-proliferative activity in words ([1]; 2 days of peptide application) | anti-proliferative activity (maximum or stated level), scaled so that TNP-470 = 100% [1, 6] | anti-proliferative activity (maximum or stated level), scaled so that TNP-470 = 100% [2] | other results
QPWSQCSATCGDGVRERRR [SEQ ID NO: 64, THSD1 AAQ88516.1: 347-365] | approximately 20% | substantial increase in activity |  |  |  |  |  | peptide concentration at which maximum activity was observed [1, 3]: 0.01 µg/mL
SAWRACSVTCGKGIQKRSR [SEQ ID NO: 43, Fibulin-6 CAC37630.1: 1574-1592] | 30% |  | peptide activity increasing as concentration increased |  |  |  |  | 
SEWSDCSVTCGKGMRTRQR [SEQ ID NO: 73, VSGP/F-spondin BAB18461.1: 621-639] |  | increased activity |  | biphasic profile | not statistically significant |  |  | peptide concentration at which maximum activity was observed ([1]; 4 days): 0.01 µg/mL; anti-proliferative activity in words ([1]; 4 days of peptide application): notable activity
SKWSECSRTCGGGVKFQER [SEQ ID NO: 29, ADAMTS-18 Q8TE60: 596-614] |  | significantly increased |  | biphasic response |  |  |  | anti-proliferative activity, TNP-470 = 100% ([1]; 1 μg/ml peptide, 2 days): 30%; anti-proliferative activity in words at 10 μg/ml [1, 5]: reduced
SPWSKCSAACGQTGVQTRTR [SEQ ID NO: 39, CILP AAQ89263.1: 156-175] | ~30% |  |  | biphasic activity |  |  |  | anti-proliferative activity, TNP-470 = 100% [1, 5]: 5%; anti-proliferative activity, TNP-470 = 100% ([1]; 0.01 and 0.1 μg/ml peptide, 2- and 4-day assay): 15%; peptide concentration at which maximum activity was observed [1, 3]: 1 µg/mL; peptide concentration at which maximum activity was observed [2]: 0.1 µg/mL
SPWSPCSGNCSTGKQQRTR [SEQ ID NO: 65, THSD3 AAH33140.1: 280-298] |  |  |  |  |  |  |  | anti-proliferative activity in words ([1]; 2- and 4-day assay, overall): did not effect endothelial cell proliferation; anti-proliferative activity in words [2]: did not effect endothelial cell proliferation
SPWSPCSTSCGLGVSTRI [SEQ ID NO: 74, WISP-1 AAH74841.1: 221-238] |  | reached higher values |  |  | not statistically significant | ~20% |  | anti-proliferative activity in words [2]: intermediate levels
SPWSQCSVRCGRGQRSRQVR [SEQ ID NO: 69, TSRC1 AAH27478.1: 140-159] |  | activity increased |  | biphasic | minimal activity | 25% |  | peptide concentration at which maximum activity was observed ([1]; 4 days): 0.1 µg/mL; anti-proliferative activity in words ([1]; 4 days of peptide application): prominent activity
SPWSQCTASCGGGVQTR [SEQ ID NO: 24, ADAMTS-16 Q8TE57: 1133-1149] |  | increase in peptide activity |  | biphasic response |  | 30% |  | anti-proliferative activity in words ([1]; 4 days of peptide application): strong activity
TAWGPCSTTCGLGMATRV [SEQ ID NO: 75, WISP-2 AAQ89274.1: 199-216] |  |  |  | biphasic response |  |  | 20% | anti-proliferative activity in words at 0.01 μg/ml ([1]; 2- and 4-day assay): quite potent
TEWSACNVRCGRGWQKRSR [SEQ ID NO: 71, UNC5D AAQ88514.1: 259-277] | 20% |  | biphasic |  |  |  | 30% | 
TEWSACSKTCGMGISTRV [SEQ ID NO: 41, CTGF CAC44023.1: 204-221] |  |  |  |  | low | 40% |  | peptide concentration at which maximum activity was observed ([1]; 4 days): 1 µg/mL; anti-proliferative activity in words [2]: resembled those observed in the 2-day assay
TEWSVCNSRCGRGYQKRTR [SEQ ID NO: 70, UNC5C AAH41156.1: 267-285] |  |  |  |  | negligible activity | 20% | 20% | anti-proliferative activity, TNP-470 = 100% ([2]; 30 μg/ml peptide): 40%; peptide concentration at which maximum activity was observed [2]: 10 µg/mL
TEWTACSKSCGMGFSTRV [SEQ ID NO: 46, NOVH AAL92490.1: 211-228] | 20% |  | monotonic increase with concentration |  |  |  |  | peptide concentration at which maximum activity was observed [1, 3]: 0.01 µg/mL
TKWTPCSRTCGMGISNRV [SEQ ID NO: 76, WISP-3 CAB16556.1: 191-208] |  |  | increased significantly as the concentration increased | biphasic |  |  |  | anti-proliferative activity in words at 0.01 μg/ml ([1]; 2- and 4-day assay): shows potency
TQWTSCSKTCNSGTQSRHR [SEQ ID NO: 38, C6 AAB59433.1: 30-48] |  |  | biphasic |  |  | 35% | 25% | 
TSWSQCSKTCGTGISTRV [SEQ ID NO: 42, CYR61 AAR05446.1: 234-251] | 30% |  |  | biphasic |  |  | 30% | peptide concentration at which maximum activity was observed [1, 3]: 0.01 µg/mL; peptide concentration at which maximum activity was observed [2]: 0.1 µg/mL
WDECSATCGMGMKKRHR [SEQ ID NO: 72, VSGP/F-spondin BAB18461.1: 567-583] |  |  |  |  | not statistically significant | 10% |  | anti-proliferative activity in words [2]: exhibited activity
WTRCSSSCGRGVSVRSR [SEQ ID NO: 66, THSD6 AAH40620.1: 44-60] |  |  | biphasic | biphasic |  |  | ~30% | peptide concentration at which maximum activity was observed [1, 3]: 0.1 µg/mL; anti-proliferative activity (maximum or stated level), scaled so that TNP-470 = 100% ([1]; 2 days of peptide application, 0.01-10 μg/ml): approximately 20%
YCNIHQVCHYAQRNDRSYWL [SEQ ID NO: 86, α4CIV CAA56943.1: 1524-1543] |  |  | increasing at higher peptide concentrations |  |  |  |  | anti-proliferative activity in words ([1]; 2- and 4-day assay, overall): low anti-proliferative activity; anti-proliferative activity in words [2]: greater
